51 compounds from patent publication US20260158017A1, “KIF18A INHIBITOR” (WIGEN BIOMEDICINE TECHNOLOGY (SHANGHAI) CO., LTD., priority 2021, published 2026) can be followed below.

One may read the IC50 as the concentration at which inhibition is half-maximal.

T1 sequence (Q8NI77 1-467): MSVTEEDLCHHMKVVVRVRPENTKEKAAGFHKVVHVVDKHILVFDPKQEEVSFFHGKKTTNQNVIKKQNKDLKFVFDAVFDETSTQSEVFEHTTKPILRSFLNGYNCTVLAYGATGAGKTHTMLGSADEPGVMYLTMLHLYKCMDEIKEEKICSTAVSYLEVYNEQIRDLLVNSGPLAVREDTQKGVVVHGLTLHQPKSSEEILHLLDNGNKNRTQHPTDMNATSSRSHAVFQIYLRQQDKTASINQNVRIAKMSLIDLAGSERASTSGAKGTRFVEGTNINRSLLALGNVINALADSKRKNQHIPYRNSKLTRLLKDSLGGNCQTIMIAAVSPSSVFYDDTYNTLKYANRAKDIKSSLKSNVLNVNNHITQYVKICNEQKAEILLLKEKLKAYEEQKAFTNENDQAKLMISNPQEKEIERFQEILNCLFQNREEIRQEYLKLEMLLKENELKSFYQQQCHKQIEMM
T1 sequence (P02550 whole entry partner): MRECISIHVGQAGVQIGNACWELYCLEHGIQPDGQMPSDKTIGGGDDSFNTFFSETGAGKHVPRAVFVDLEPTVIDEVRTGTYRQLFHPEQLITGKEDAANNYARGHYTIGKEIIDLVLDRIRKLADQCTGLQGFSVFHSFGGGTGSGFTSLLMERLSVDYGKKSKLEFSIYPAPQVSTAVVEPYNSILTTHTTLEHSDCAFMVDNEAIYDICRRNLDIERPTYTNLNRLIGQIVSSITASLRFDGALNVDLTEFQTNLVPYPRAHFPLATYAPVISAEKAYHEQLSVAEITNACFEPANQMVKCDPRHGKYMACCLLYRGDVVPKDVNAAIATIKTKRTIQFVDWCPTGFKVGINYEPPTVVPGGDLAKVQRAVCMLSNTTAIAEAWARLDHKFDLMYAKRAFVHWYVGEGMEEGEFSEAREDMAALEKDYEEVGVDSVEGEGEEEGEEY
T1 sequence (P02554 whole entry partner): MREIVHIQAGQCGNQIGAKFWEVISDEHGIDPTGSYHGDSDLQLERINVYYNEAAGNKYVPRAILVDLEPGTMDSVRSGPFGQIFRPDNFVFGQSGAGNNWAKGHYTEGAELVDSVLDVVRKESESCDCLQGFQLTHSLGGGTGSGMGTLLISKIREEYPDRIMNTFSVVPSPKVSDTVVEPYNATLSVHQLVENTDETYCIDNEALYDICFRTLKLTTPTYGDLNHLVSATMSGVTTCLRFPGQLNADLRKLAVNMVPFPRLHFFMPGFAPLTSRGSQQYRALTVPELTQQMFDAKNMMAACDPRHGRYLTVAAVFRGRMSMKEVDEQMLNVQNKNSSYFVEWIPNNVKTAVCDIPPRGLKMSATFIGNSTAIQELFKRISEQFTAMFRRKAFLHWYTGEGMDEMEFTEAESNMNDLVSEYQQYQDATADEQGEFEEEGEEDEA

This test addresses T1, Recombinant human KIF18A (1-467His-tagged) protein (Homo sapiens, UniProt Q8NI77).
T1 construct: Recombinant human KIF18A (1-467His-tagged) protein; His; made in house
The test can be described thus: KIF18A enzyme assay (microtubule-stimulated ATPase activity, ADP-Glo). It is filed as biochemical. Conditions: 30 nM KIF18A, 75 μM ATP, 30 μg/mL pig microtubules; read-out: Inhibitory activity against KIF18A IC50. As for the experimental part: In Vitro Assay of the Compounds of the Present Invention for Inhibiting Enzymatic Activity of KIF18A
KIF18A enzyme assay: The enzymatic activity of KIF18A after treatment with the compounds was measured by an assay of microtubule-stimulated ATPase activity. ADP generated from the ATPase reaction was measured in this assay. The compounds were serially diluted 2-fold in DMSO over a range of 22 concentration points. […] Concentrations of KIF18A protein, microtubules, and ATP in the reaction were optimized for a standardized homogenous enzyme assay using an ADP-Glo kinase/ATPase assay kit. A reaction buffer [(15 mM Tris, pH 7.5), 10 mM MgCl2, 0.01% PluronicF-68, 1 μM paclitaxel, and 30 μg/mL pig microtubules] was prepared. […] The resulting reaction mixture was incubated at room temperature for another 15 min. 5 μL of ADP-Glo reagent and 2.5 μL of the reaction mixture were mixed and the resulting mixture was incubated at room temperature for 40 min. 10 μL of ADP-Glo detection reagent was added and the mixture was incubated at room temperature for 40 min. Luminescence was read using a microplate reader and compared with that of the DMSO group, and then the inhibition percentages and IC50 values of the compounds were calculated.
`C[C@H](CO)S(=O)(=O)Nc1cc(N2CCC3(CC2)CC3)c(C(=O)Nc2ccc([N+](=O)[O-])c(N3CCC(F)(F)CC3)c2)cn1` [Compound 110]: the IC50 is no more than 0.1 µM. The value for `C[C@@H]1CN(c2cc(NC(=O)c3cnc(NS(=O)(=O)[C@@H](C)CO)cc3N3CCC4(CC3)CC4)ccc2[N+](=O)[O-])CCO1` [Compound 111] was no more than 0.1 µM; that for `C[C@@H]1CN(c2cc(NC(=O)c3cnc(NS(=O)(=O)[C@H](C)CO)cc3N3CCC4(CC3)CC4)ccc2[N+](=O)[O-])CCO1` [Compound 112] was no more than 0.1 µM. With `O=C(Nc1ccc([N+](=O)[O-])c(N2CCC(F)(F)CC2)c1)c1cnc(S(=O)(=O)NCCO)cc1N1CCC2(CC1)CC2` [Compound 113] the figure was no more than 0.1 µM; with `C[C@@H]1CN(c2cc(NC(=O)c3cnc(S(=O)(=O)NCCO)cc3N3CCC4(CC3)CC4)ccc2[N+](=O)[O-])CCO1` [Compound 114], no more than 0.1 µM. The value for `C[C@H]1CN(c2cc(NC(=O)c3cnc(S(=O)(=O)NCCO)cc3N3CCC4(CC3)CC4)ccc2[N+](=O)[O-])CCO1` [Compound 115] was no more than 0.1 µM; that for `O=C(Nc1ccc([N+](=O)[O-])c(N2CC(F)(F)C2)c1)c1cnc(S(=O)(=O)NCCO)cc1N1CCC2(CC1)CC2` [Compound 116] was no more than 0.1 µM. As for `O=C(Nc1ccc([N+](=O)[O-])c(OCCC(F)(F)F)c1)c1cnc(S(=O)(=O)NCCO)cc1N1CCC2(CC1)CC2` [Compound 117], the IC50 was no more than 0.1 µM. With `O=C(Nc1ccc([N+](=O)[O-])c(N2CCC3(CC3)C2)c1)c1cnc(S(=O)(=O)NCCO)cc1N1CCC2(CC1)CC2` [Compound 118], the IC50 is no more than 0.1 µM.

Regarding `O=C(Nc1ccc([N+](=O)[O-])c(OC2CCC2)c1)c1cnc(S(=O)(=O)NCCO)cc1N1CCC2(CC1)CC2` [Compound 119], the IC50 is no more than 0.1 µM. The value for `CC1(F)CCN(c2cc(NC(=O)c3cnc(S(=O)(=O)NCCO)cc3N3CCC4(CC3)CC4)ccc2[N+](=O)[O-])C1` (stereo not drawn) [Compound 120] was no more than 0.1 µM; that for `O=C(Nc1ccc([N+](=O)[O-])c(N2CCC(F)CC2)c1)c1cnc(S(=O)(=O)NCCO)cc1N1CCC2(CC1)CC2` [Compound 121] was no more than 0.1 µM. For the compound `O=C(Nc1ccc([N+](=O)[O-])c(N2CC3CC3C2)c1)c1cnc(S(=O)(=O)NCCO)cc1N1CCC2(CC1)CC2` (stereo not drawn) [Compound 122], the IC50 was no more than 0.1 µM.

For the compound `CC(C)(CO)Nc1cc(NC(=O)c2cnc(S(=O)(=O)NCCO)cc2N2CCC3(CC2)CC3)ccc1[N+](=O)[O-]` [Compound 123], the IC50 is no more than 0.1 µM. Regarding `O=C(Nc1ccc([N+](=O)[O-])c(N2CCOCC2)c1)c1cnc(S(=O)(=O)NCCO)cc1N1CCC2(CC1)CC2` [Compound 124], the IC50 was no more than 0.1 µM.

Regarding `C[C@@H](CO)NS(=O)(=O)c1cc(N2CCC3(CC2)CC3)c(C(=O)Nc2ccc([N+](=O)[O-])c(N3CCC(F)(F)CC3)c2)cn1` [Compound 125], the IC50 was no more than 0.1 µM.

`C[C@H](CO)NS(=O)(=O)c1cc(N2CCC3(CC2)CC3)c(C(=O)Nc2ccc([N+](=O)[O-])c(N3CCC(F)(F)CC3)c2)cn1` [Compound 126]: the IC50 was no more than 0.1 µM.

Regarding `C[C@@H]1CN(c2cc(NC(=O)c3cnc(S(=O)(=O)N[C@@H](C)CO)cc3N3CCC4(CC3)CC4)ccc2[N+](=O)[O-])CCO1` [Compound 127], the IC50 is no more than 0.1 µM.

With `C[C@H](CO)NS(=O)(=O)c1cc(N2CCC3(CC2)CC3)c(C(=O)Nc2ccc([N+](=O)[O-])c(N3CCO[C@H](C)C3)c2)cn1` [Compound 128], the IC50 was no more than 0.1 µM. For the compound `C[C@@H]1CN(c2nc(NC(=O)c3cnc(NS(=O)(=O)CCO)cc3N3CCC4(CC3)CC4)ccc2[N+](=O)[O-])CCO1` [Compound 130], the IC50 was no more than 0.1 µM. With `C[C@H]1CN(c2nc(NC(=O)c3cnc(NS(=O)(=O)CCO)cc3N3CCC4(CC3)CC4)ccc2[N+](=O)[O-])CCO1` [Compound 131] the figure was no more than 0.1 µM; with `O=C(Nc1ccc([N+](=O)[O-])c(N2CC(F)(F)C2)n1)c1cnc(NS(=O)(=O)CCO)cc1N1CCC2(CC1)CC2` [Compound 132], no more than 0.1 µM. The value for `O=C(Nc1ccc([N+](=O)[O-])c(OCCC(F)(F)F)n1)c1cnc(NS(=O)(=O)CCO)cc1N1CCC2(CC1)CC2` [Compound 133] was no more than 0.1 µM; that for `O=C(Nc1ccc([N+](=O)[O-])c(N2CCC3(CC3)C2)n1)c1cnc(NS(=O)(=O)CCO)cc1N1CCC2(CC1)CC2` [Compound 134] was no more than 0.1 µM.

For the compound `O=C(Nc1ccc([N+](=O)[O-])c(OC2CCC2)n1)c1cnc(NS(=O)(=O)CCO)cc1N1CCC2(CC1)CC2` [Compound 135], the IC50 is no more than 0.1 µM. Consider `CC1(F)CCN(c2nc(NC(=O)c3cnc(NS(=O)(=O)CCO)cc3N3CCC4(CC3)CC4)ccc2[N+](=O)[O-])C1` (stereo not drawn) [Compound 136], for which the IC50 is no more than 0.1 µM. With `O=C(Nc1ccc([N+](=O)[O-])c(N2CCC(F)CC2)n1)c1cnc(NS(=O)(=O)CCO)cc1N1CCC2(CC1)CC2` [Compound 137] the figure was no more than 0.1 µM; with `O=C(Nc1ccc([N+](=O)[O-])c(N2CC3CC3C2)n1)c1cnc(NS(=O)(=O)CCO)cc1N1CCC2(CC1)CC2` (stereo not drawn) [Compound 138], no more than 0.1 µM. The value for `CC(C)(CO)Nc1nc(NC(=O)c2cnc(NS(=O)(=O)CCO)cc2N2CCC3(CC2)CC3)ccc1[N+](=O)[O-]` [Compound 139] was no more than 0.1 µM; that for `O=C(Nc1ccc([N+](=O)[O-])c(N2CCOCC2)n1)c1cnc(NS(=O)(=O)CCO)cc1N1CCC2(CC1)CC2` [Compound 140] was no more than 0.1 µM; that for `C[C@@H](CO)S(=O)(=O)Nc1cc(N2CCC3(CC2)CC3)c(C(=O)Nc2ccc([N+](=O)[O-])c(N3CCC(F)(F)CC3)n2)cn1` [Compound 141] was no more than 0.1 µM. With `C[C@H](CO)S(=O)(=O)Nc1cc(N2CCC3(CC2)CC3)c(C(=O)Nc2ccc([N+](=O)[O-])c(N3CCC(F)(F)CC3)n2)cn1` [Compound 142] the figure was no more than 0.1 µM. `C[C@@H]1CN(c2nc(NC(=O)c3cnc(NS(=O)(=O)[C@@H](C)CO)cc3N3CCC4(CC3)CC4)ccc2[N+](=O)[O-])CCO1` [Compound 143]: the IC50 was no more than 0.1 µM. Take `C[C@@H]1CN(c2nc(NC(=O)c3cnc(NS(=O)(=O)[C@H](C)CO)cc3N3CCC4(CC3)CC4)ccc2[N+](=O)[O-])CCO1` [Compound 144]: the IC50 is no more than 0.1 µM. The value for `O=C(Nc1ccc([N+](=O)[O-])c(N2CCC(F)(F)CC2)n1)c1cnc(S(=O)(=O)NCCO)cc1N1CCC2(CC1)CC2` [Compound 145] was no more than 0.1 µM; that for `C[C@@H]1CN(c2nc(NC(=O)c3cnc(S(=O)(=O)NCCO)cc3N3CCC4(CC3)CC4)ccc2[N+](=O)[O-])CCO1` [Compound 146] was no more than 0.1 µM. For `C[C@H]1CN(c2nc(NC(=O)c3cnc(S(=O)(=O)NCCO)cc3N3CCC4(CC3)CC4)ccc2[N+](=O)[O-])CCO1` [Compound 147], the IC50 was no more than 0.1 µM.

For the compound `O=C(Nc1ccc([N+](=O)[O-])c(N2CC(F)(F)C2)n1)c1cnc(S(=O)(=O)NCCO)cc1N1CCC2(CC1)CC2` [Compound 148], the IC50 is no more than 0.1 µM.

Consider `O=C(Nc1ccc([N+](=O)[O-])c(OCCC(F)(F)F)n1)c1cnc(S(=O)(=O)NCCO)cc1N1CCC2(CC1)CC2` [Compound 149], for which the IC50 was no more than 0.1 µM. Turning to `O=C(Nc1ccc([N+](=O)[O-])c(N2CCC3(CC3)C2)n1)c1cnc(S(=O)(=O)NCCO)cc1N1CCC2(CC1)CC2` [Compound 150], the IC50 was no more than 0.1 µM. The value for `O=C(Nc1ccc([N+](=O)[O-])c(OC2CCC2)n1)c1cnc(S(=O)(=O)NCCO)cc1N1CCC2(CC1)CC2` [Compound 151] was no more than 0.1 µM. Regarding `CC1(F)CCN(c2nc(NC(=O)c3cnc(S(=O)(=O)NCCO)cc3N3CCC4(CC3)CC4)ccc2[N+](=O)[O-])C1` (stereo not drawn) [Compound 152], the IC50 was no more than 0.1 µM. With `O=C(Nc1ccc([N+](=O)[O-])c(N2CCC(F)CC2)n1)c1cnc(S(=O)(=O)NCCO)cc1N1CCC2(CC1)CC2` [Compound 153] the figure was no more than 0.1 µM; with `O=C(Nc1ccc([N+](=O)[O-])c(N2CC3CC3C2)n1)c1cnc(S(=O)(=O)NCCO)cc1N1CCC2(CC1)CC2` (stereo not drawn) [Compound 154], no more than 0.1 µM; with `CC(C)(CO)Nc1nc(NC(=O)c2cnc(S(=O)(=O)NCCO)cc2N2CCC3(CC2)CC3)ccc1[N+](=O)[O-]` [Compound 155], no more than 0.1 µM. Regarding `O=C(Nc1ccc([N+](=O)[O-])c(N2CCOCC2)n1)c1cnc(S(=O)(=O)NCCO)cc1N1CCC2(CC1)CC2` [Compound 156], the IC50 is no more than 0.1 µM.

Regarding `C[C@@H](CO)NS(=O)(=O)c1cc(N2CCC3(CC2)CC3)c(C(=O)Nc2ccc([N+](=O)[O-])c(N3CCC(F)(F)CC3)n2)cn1` [Compound 157], the IC50 was no more than 0.1 µM. In the case of `C[C@H](CO)NS(=O)(=O)c1cc(N2CCC3(CC2)CC3)c(C(=O)Nc2ccc([N+](=O)[O-])c(N3CCC(F)(F)CC3)n2)cn1` [Compound 158], the IC50 is no more than 0.1 µM. For `C[C@@H]1CN(c2nc(NC(=O)c3cnc(S(=O)(=O)N[C@@H](C)CO)cc3N3CCC4(CC3)CC4)ccc2[N+](=O)[O-])CCO1` [Compound 159], the IC50 is no more than 0.1 µM.

On to `C[C@H](CO)NS(=O)(=O)c1cc(N2CCC3(CC2)CC3)c(C(=O)Nc2ccc([N+](=O)[O-])c(N3CCO[C@H](C)C3)n2)cn1` [Compound 160], for which the IC50 is no more than 0.1 µM. With `C[C@@H]1CN(c2nc(C(=O)Nc3ccc(NS(=O)(=O)CCO)cc3N3CCC4(CC3)CC4)ccc2[N+](=O)[O-])CCO1` [Compound 162] the figure was no more than 0.1 µM.
